In ChEMBL document CHEMBL3991601, “The target landscape of clinical kinase drugs” (Science, 2017):
Activity calls are given as the source filed them. Cut-off read from the data, not from the text of the source, for most assays here: actives have a measured Kd and inactives only a lower limit.

Key:
Aurora kinase B = Aurora kinase B (Homo sapiens, UniProt Q96GD4)
[1] = biological target: T1, Acyl-CoA dehydrogenase family member 11 (Homo sapiens, UniProt Q709F0)
T1 sequence (Q709F0 whole entry): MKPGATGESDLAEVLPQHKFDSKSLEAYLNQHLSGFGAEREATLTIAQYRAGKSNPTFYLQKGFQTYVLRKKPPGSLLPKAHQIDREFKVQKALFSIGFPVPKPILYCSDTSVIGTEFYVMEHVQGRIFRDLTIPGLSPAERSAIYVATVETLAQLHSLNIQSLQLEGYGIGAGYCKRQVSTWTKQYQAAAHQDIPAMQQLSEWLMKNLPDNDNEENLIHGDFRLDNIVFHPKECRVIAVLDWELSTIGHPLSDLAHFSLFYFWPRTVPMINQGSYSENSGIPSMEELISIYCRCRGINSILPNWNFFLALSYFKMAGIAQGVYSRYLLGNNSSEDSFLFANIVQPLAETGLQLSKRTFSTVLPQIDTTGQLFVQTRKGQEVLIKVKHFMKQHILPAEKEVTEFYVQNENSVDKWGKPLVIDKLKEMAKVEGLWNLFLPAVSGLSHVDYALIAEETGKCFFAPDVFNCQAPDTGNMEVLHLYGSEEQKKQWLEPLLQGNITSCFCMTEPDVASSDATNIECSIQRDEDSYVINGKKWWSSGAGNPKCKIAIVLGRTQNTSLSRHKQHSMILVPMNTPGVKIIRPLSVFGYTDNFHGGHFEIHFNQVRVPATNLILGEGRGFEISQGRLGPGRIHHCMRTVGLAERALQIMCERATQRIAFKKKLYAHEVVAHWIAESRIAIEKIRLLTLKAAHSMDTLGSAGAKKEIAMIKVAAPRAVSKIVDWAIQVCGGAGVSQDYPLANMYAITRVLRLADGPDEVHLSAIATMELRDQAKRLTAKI

Ephrin type-A receptor 4 = Ephrin type-A receptor 4 (Homo sapiens, UniProt P54764)
[2] = biological target: Ribosomal protein S6 kinase alpha-4 (Homo sapiens, UniProt O75676)
[3] = biological target: T2, Phenylalanine--tRNA ligase beta subunit (Homo sapiens, UniProt Q9NSD9)
T2 sequence (Q9NSD9 whole entry): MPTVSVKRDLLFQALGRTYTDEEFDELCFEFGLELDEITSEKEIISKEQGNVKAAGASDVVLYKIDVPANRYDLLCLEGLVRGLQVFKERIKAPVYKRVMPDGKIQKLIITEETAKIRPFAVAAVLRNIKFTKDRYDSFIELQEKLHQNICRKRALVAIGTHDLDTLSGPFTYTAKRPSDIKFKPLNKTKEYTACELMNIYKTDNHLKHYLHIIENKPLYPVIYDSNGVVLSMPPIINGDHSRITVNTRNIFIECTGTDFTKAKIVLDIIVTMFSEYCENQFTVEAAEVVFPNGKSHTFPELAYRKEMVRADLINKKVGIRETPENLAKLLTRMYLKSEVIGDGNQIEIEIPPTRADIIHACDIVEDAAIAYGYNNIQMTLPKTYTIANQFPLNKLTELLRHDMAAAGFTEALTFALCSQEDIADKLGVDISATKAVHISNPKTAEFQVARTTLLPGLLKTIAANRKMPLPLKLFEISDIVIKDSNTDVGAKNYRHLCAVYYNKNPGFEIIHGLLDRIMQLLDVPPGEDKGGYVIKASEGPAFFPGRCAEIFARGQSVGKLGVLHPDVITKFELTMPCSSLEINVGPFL

[4] = biological target: T3, Interleukin-1 receptor-associated kinase 3 (Homo sapiens, UniProt Q9Y616)
T3 sequence (Q9Y616 whole entry): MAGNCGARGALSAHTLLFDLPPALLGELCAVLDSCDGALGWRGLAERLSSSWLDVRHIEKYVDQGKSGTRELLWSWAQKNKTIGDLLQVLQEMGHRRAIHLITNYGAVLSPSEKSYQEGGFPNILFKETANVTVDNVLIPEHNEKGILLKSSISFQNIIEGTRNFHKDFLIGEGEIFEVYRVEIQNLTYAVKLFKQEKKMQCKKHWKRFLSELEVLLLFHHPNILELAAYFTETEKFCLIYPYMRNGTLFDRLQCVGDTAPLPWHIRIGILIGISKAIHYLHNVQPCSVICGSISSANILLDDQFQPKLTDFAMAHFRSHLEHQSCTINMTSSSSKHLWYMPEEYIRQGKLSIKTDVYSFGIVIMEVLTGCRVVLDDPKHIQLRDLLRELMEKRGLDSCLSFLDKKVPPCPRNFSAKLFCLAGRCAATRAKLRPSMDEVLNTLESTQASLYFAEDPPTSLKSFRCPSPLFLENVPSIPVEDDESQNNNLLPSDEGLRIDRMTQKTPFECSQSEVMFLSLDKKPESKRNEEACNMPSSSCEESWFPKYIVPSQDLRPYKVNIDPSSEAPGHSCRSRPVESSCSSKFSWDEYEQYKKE

[5] = biological target: AP2-associated protein kinase 1 (Homo sapiens, UniProt Q2M2I8)
[6] = biological target: Ribosomal protein S6 kinase alpha-5 (Homo sapiens, UniProt O75582)
Note: in the data inactive means no Kd found up to 30 µM.

Sequence of Aurora kinase B (Q96GD4 whole entry): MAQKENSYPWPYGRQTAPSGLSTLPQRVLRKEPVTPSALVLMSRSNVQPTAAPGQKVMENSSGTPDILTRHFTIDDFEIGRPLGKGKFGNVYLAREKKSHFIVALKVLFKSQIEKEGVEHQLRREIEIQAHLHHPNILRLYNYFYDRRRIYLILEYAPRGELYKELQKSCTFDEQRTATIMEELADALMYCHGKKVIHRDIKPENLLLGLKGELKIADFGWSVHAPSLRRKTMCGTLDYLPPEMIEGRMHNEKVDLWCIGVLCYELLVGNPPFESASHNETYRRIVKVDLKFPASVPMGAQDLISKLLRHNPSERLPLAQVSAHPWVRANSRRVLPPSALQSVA
Sequence of Ribosomal protein S6 kinase alpha-4 (O75676 whole entry): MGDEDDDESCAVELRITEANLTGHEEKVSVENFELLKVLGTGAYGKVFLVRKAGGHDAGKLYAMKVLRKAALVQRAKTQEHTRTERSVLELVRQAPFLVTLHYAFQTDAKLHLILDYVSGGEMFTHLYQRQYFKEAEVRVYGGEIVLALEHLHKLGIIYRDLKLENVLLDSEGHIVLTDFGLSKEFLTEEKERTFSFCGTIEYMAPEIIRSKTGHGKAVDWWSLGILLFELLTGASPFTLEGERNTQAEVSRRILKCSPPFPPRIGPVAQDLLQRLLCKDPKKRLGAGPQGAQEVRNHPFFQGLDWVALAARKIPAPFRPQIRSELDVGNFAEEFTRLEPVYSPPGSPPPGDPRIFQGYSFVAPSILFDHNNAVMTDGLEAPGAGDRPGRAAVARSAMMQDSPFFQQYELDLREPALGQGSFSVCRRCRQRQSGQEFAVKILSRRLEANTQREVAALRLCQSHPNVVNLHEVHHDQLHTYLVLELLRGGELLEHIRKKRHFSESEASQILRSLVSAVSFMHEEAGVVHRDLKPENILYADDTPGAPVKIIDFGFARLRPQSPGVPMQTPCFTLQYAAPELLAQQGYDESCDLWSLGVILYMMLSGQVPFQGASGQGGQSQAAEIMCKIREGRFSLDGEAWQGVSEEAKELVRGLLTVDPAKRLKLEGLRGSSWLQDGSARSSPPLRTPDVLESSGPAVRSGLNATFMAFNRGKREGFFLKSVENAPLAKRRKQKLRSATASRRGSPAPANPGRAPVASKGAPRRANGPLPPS
Sequence of AP2-associated protein kinase 1 (Q2M2I8 whole entry): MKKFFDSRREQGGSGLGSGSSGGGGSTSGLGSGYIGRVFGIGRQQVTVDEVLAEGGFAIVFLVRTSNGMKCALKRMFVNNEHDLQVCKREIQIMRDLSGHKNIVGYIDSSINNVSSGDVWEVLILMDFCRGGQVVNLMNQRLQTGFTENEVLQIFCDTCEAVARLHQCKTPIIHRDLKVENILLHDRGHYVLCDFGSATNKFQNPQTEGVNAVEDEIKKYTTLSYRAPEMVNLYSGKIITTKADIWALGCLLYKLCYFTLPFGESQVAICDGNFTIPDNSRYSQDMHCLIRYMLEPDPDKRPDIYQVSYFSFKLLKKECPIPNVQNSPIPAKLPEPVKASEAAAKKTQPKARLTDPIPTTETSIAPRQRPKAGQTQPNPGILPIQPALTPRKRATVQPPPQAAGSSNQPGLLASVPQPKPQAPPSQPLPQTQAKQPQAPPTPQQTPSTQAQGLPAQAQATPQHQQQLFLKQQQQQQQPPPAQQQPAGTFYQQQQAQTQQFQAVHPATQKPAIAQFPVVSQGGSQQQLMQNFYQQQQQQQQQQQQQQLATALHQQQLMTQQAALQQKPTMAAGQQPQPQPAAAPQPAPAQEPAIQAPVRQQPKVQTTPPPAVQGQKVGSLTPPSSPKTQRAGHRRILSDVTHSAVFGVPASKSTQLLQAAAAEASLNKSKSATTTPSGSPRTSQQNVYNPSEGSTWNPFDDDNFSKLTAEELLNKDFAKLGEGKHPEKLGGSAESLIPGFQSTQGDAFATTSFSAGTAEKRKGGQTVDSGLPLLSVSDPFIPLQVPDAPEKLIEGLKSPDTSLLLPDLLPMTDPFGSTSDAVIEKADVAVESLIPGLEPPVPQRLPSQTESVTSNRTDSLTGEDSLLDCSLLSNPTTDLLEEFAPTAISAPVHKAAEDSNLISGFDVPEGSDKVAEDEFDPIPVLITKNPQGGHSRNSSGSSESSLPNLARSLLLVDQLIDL
Sequence of Ephrin type-A receptor 4 (P54764 whole entry): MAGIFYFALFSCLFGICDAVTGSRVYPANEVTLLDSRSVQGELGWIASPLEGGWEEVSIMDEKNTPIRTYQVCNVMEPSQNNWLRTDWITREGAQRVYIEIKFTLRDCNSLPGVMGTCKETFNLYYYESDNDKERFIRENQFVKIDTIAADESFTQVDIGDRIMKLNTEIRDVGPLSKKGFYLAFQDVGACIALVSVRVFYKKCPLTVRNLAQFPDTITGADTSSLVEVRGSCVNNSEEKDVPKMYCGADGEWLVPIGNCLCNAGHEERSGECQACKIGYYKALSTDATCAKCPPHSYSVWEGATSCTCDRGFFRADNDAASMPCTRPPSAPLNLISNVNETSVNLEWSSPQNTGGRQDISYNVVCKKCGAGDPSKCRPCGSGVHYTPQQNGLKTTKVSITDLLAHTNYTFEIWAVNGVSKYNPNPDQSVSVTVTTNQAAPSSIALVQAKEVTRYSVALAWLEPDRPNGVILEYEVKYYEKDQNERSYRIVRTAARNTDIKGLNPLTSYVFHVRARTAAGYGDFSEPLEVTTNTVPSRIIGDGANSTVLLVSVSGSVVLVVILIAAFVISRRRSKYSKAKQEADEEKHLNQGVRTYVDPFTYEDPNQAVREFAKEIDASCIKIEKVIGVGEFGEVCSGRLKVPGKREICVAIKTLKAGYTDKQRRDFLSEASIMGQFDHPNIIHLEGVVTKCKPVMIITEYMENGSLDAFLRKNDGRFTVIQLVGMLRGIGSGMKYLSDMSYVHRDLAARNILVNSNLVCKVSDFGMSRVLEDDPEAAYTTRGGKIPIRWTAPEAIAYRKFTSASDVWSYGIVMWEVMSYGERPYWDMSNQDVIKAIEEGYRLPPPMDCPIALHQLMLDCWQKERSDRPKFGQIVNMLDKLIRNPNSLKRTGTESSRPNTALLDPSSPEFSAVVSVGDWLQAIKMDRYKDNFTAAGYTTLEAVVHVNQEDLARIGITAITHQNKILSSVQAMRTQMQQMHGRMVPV
Sequence of Ribosomal protein S6 kinase alpha-5 (O75582 whole entry): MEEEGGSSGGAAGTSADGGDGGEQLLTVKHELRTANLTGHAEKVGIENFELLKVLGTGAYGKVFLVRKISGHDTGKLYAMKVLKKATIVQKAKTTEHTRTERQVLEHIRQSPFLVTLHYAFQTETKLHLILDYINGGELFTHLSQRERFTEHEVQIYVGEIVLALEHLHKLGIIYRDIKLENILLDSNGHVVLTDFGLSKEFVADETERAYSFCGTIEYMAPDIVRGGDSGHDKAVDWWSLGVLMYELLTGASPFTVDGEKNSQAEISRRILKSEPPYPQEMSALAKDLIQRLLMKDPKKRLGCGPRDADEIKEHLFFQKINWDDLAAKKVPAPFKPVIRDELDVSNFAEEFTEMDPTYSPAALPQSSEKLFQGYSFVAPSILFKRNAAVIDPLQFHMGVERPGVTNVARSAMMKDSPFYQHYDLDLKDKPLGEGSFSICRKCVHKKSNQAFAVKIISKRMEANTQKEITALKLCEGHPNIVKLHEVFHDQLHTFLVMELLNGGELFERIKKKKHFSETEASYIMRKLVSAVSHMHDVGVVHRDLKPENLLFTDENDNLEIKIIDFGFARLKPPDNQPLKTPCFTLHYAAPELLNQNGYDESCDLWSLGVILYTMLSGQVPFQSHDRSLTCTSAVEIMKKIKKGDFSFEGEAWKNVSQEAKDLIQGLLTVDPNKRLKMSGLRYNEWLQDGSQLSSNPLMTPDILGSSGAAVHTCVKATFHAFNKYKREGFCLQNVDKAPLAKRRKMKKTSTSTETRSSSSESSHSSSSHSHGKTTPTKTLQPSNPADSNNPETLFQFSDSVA

SMILES	Kd [1]	Kd (Ephrin type-A receptor 4)	Kd [2]	Kd [3]	Kd [4]	Kd [5]	Kd [6]	Kd (Aurora kinase B)
Cc1c(NC(=O)OC[C@@H]2COCCN2)cn2ncnc(Nc3ccc4c(cnn4Cc4cccc(F)c4)c3)c12 [AC-480]	> 30 µM (inactive)	> 30 µM (inactive)	> 30 µM (inactive)	> 30 µM (inactive)	> 30 µM (inactive)	> 30 µM (inactive)	> 30 µM (inactive)	> 30 µM (inactive)
CN(c1ncccc1CNc1nc(Nc2ccc3c(c2)CC(=O)N3)ncc1C(F)(F)F)S(C)(=O)=O [PF-00562271]	> 30 µM (inactive)	> 30 µM (inactive)	> 30 µM (inactive)	> 30 µM (inactive)	> 30 µM (inactive)	> 30 µM (inactive)		1.04 µM (active)
C[C@]1(O)C[C@@H](c2nc(-c3ccc4ccc(-c5ccccc5)nc4c3)c3c(N)nccn32)C1 [LINSITINIB]	> 30 µM (inactive)	> 30 µM (inactive)	> 30 µM (inactive)	> 30 µM (inactive)	> 30 µM (inactive)	> 30 µM (inactive)		
CN1CCN(c2nc(C3=C(c4c[nH]c5ccccc45)C(=O)NC3=O)c3ccccc3n2)CC1 [SOTRASTAURIN]		> 30 µM (inactive)	> 30 µM (inactive)	> 30 µM (inactive)	> 30 µM (inactive)	> 30 µM (inactive)	> 30 µM (inactive)	> 30 µM (inactive)
C=CCn1c(=O)c2cnc(Nc3ccc(N4CCN(C)CC4)cc3)nc2n1-c1cccc(C(C)(C)O)n1 [ADAVOSERTIB]	> 30 µM (inactive)	> 30 µM (inactive)	> 30 µM (inactive)	> 30 µM (inactive)	> 30 µM (inactive)	> 30 µM (inactive)	> 30 µM (inactive)	
CN(C)C/C=C/C(=O)Nc1cc2c(Nc3ccc(F)c(Cl)c3)ncnc2cc1O[C@H]1CCOC1 [AFATINIB]	> 30 µM (inactive)			> 30 µM (inactive)				
CCc1nc(C(N)=O)c(Nc2ccc(N3CCC(N4CCN(C)CC4)CC3)c(OC)c2)nc1NC1CCOCC1 [GILTERITINIB]	> 30 µM (inactive)	> 30 µM (inactive)	> 30 µM (inactive)	> 30 µM (inactive)		0.025 µM (active)	> 30 µM (inactive)	> 30 µM (inactive)
CCN1CCN(Cc2ccc(Nc3ncc(F)c(-c4cc(F)c5nc(C)n(C(C)C)c5c4)n3)nc2)CC1 [ABEMACICLIB]	> 30 µM (inactive)	> 30 µM (inactive)	> 30 µM (inactive)	> 30 µM (inactive)	> 30 µM (inactive)		> 30 µM (inactive)	> 30 µM (inactive)
O=c1[nH]c([C@@H]2CCCN2)nc2c1oc1ccc(Cl)cc12		> 30 µM (inactive)	> 30 µM (inactive)		> 30 µM (inactive)	> 30 µM (inactive)	> 30 µM (inactive)	> 30 µM (inactive)
O=S(=O)(c1cccc2cnccc12)N1CCCNCC1 [FASUDIL]	> 30 µM (inactive)	> 30 µM (inactive)	> 30 µM (inactive)	> 30 µM (inactive)		> 30 µM (inactive)		
C=CC(=O)Nc1cc(Nc2nccc(-c3cn(C)c4ccccc34)n2)c(OC)cc1N(C)CCN(C)C [OSIMERTINIB]		> 30 µM (inactive)	> 30 µM (inactive)	> 30 µM (inactive)	> 30 µM (inactive)	> 30 µM (inactive)	> 30 µM (inactive)	> 30 µM (inactive)
CCN(CCCOc1ccc2c(Nc3cc(CC(=O)Nc4cccc(F)c4)n[nH]3)ncnc2c1)CCOP(=O)(O)O [BARASERTIB]	> 30 µM (inactive)	> 30 µM (inactive)	> 30 µM (inactive)	> 30 µM (inactive)	> 30 µM (inactive)	> 30 µM (inactive)	> 30 µM (inactive)	

More lines, main results first:

Kd [1]	Kd (Ephrin type-A receptor 4)	Kd [2]	Kd [3]	Kd [4]	Kd [5]	Kd [6]	SMILES	Kd (Aurora kinase B)
> 30 µM (inactive)	> 30 µM (inactive)	> 30 µM (inactive)	> 30 µM (inactive)	> 30 µM (inactive)	> 30 µM (inactive)	> 30 µM (inactive)	NC(=O)c1ccc(N(C(N)=O)c2c(F)cccc2F)nc1-c1ccc(F)cc1F [VX-702]	> 30 µM (inactive)
	> 30 µM (inactive)	> 30 µM (inactive)	> 30 µM (inactive)	> 30 µM (inactive)	> 30 µM (inactive)	> 30 µM (inactive)	CNC(=O)c1cc(COc2nnc(Nc3ccc(Cl)cc3)c3ccoc23)ccn1 [TELATINIB]	> 30 µM (inactive)
> 30 µM (inactive)	> 30 µM (inactive)	> 30 µM (inactive)	> 30 µM (inactive)	> 30 µM (inactive)	> 30 µM (inactive)	> 30 µM (inactive)	Cn1c(=O)n(-c2ccc(C(C)(C)C#N)cc2)c2c3cc(-c4cnc5ccccc5c4)ccc3ncc21 [DACTOLISIB]	
> 30 µM (inactive)			> 30 µM (inactive)				COc1cc2c(Oc3ccc4[nH]c(C)cc4c3F)ncnc2cc1OCCCN1CCCC1 [CEDIRANIB]	
> 30 µM (inactive)			0.006 µM				COc1cc2c(N3CCN(C(=O)Nc4ccc(OC(C)C)cc4)CC3)ncnc2cc1OCCCN1CCCCC1 [TANDUTINIB]	
> 30 µM (inactive)			> 30 µM (inactive)				Cn1cnc2c(F)c(Nc3ccc(Br)cc3Cl)c(C(=O)NOCCO)cc21 [SELUMETINIB]	
> 30 µM (inactive)	> 30 µM (inactive)	> 30 µM (inactive)	> 30 µM (inactive)	1.29 µM (active)	> 30 µM (inactive)	> 30 µM (inactive)	COc1cc(Nc2ncc(F)c(Nc3ccc4c(n3)N(COP(=O)(O)O)C(=O)C(C)(C)O4)n2)cc(OC)c1OC [FOSTAMATINIB]	
> 30 µM (inactive)			> 30 µM (inactive)				C[C@@]1(C(=O)Nc2ccc(F)nc2)CCCN1c1nc(Nc2cc(C3CC3)n[nH]2)c2cccn2n1 [BMS-754807]	
> 30 µM (inactive)	> 30 µM (inactive)	> 30 µM (inactive)	> 30 µM (inactive)		> 30 µM (inactive)	> 30 µM (inactive)	CCOc1ccn(-c2ccc(F)cc2)c(=O)c1C(=O)Nc1ccc(Oc2ccnc(N)c2Cl)c(F)c1 [BMS-777607]	1.07 µM (active)
> 30 µM (inactive)			> 30 µM (inactive)				CC1(C)CNc2cc(NC(=O)c3cccnc3NCc3ccncc3)ccc21 [MOTESANIB]	
> 30 µM (inactive)	> 30 µM (inactive)	> 30 µM (inactive)	> 30 µM (inactive)	> 30 µM (inactive)	> 30 µM (inactive)	> 30 µM (inactive)	COc1cc2nccc(Oc3ccc(NC(=O)C4(C(=O)Nc5ccc(F)cc5)CC4)cc3)c2cc1OC [CABOZANTINIB]	
	> 30 µM (inactive)	> 30 µM (inactive)	> 30 µM (inactive)	> 30 µM (inactive)	> 30 µM (inactive)	> 30 µM (inactive)	O=C(O)c1ccc2c(c1)nc(Nc1cccc(Cl)c1)c1ccncc12 [SILMITASERTIB]	
